Measurements from patent publication US20080255366A1, “Crystalline Trihydrate of Zoledronic Acid” (DR. REDDY'S LABORATORIES LIMITED, priority 2005, published 2008).

Test: solubility of crystalline zoledronic acid trihydrate compared with the monohydrate
Format: physicochemical
Settings: relative to zoledronic acid monohydrate; solvent and temperature not stated

## O=P(O)(O)C(O)(Cn1ccnc1)P(=O)(O)O [zoledronic acid trihydrate, (1-Hydroxy-2-imidazol-1-yl-phosphonoethyl) phosphonic acid]
  solubility: substantially equal to that of the monohydrate
